The source of these data is patent publication US10399970B2, “Pyrridinobenzodiazepine and benzopyrridodiazecine compounds” (FEMTOGENIX LIMITED, priority 2015, dated 2019).

For series [1] the following is noted: Phase I clinical evaluation; cited from earlier work.
The next series concerns cancer cell lines. The conditions noted are these: some cancer cell lines; cited from earlier work.
Series [2] has as its system MDA MB231 (triple negative human breast cancer). As to the kind of experiment: Cytotoxicity analysis by MTT assay. Format: cell-based. The conditions noted are these: MDA-MB-231, 96 hours exposure, read-out: IC50 (nanomolar) MDA MB 231 (Triple negative breast cancer cell line). Here is the method:
MDA MB231 (triple negative human breast cancer) was obtained from the American Type Culture Collection. The cell-line was maintained in monolayer culture in 75 cm^2 flasks (TPP, Switzerland) under a humidified 5% CO2 atmosphere at 37° C. The MDA MB231 cell line was maintained in high glucose DMEM (4.5 g\l; Invitrogen), foetal bovine serum (10%, Biosera UK), non-essential amino acids (ix; Invitrogen), L-glutamine (2 mM; Invitrogen) and Penicillin-Streptomycin (1% v/v, Invitrogen). For passaging, cells were washed with PBS (GIBCO 14040, Invitrogen, UK), incubated with trypsine (GIBCO 25300, Invitrogen, UK), and re-seeded into fresh medium. For seeding, cells were counted using a Neubauer haemocytometer (Assistant, Germany) by microscopy (Nikon, USA) on a non-adherent suspension of cells that were washed in PBS, trypsinised, centrifuged at 8° C. at 8000 rpm for 5 min and re-suspended in fresh medium.
The cells were grown in normal cell culture conditions at 37° C. under a 5% CO2 humidified atmosphere using appropriate medium. […] After 96 h of continuous exposure to each compound, the cytotoxicity was determined using the 3-(4,5-Dimethylthiazol-2-yl)-2,5-diphenyltetrazolium bromide (MTT) (Lancaster Synthesis Ltd, UK) colorimetric assay. Absorbance was quantified by spectrophotometry at X=570 nm (Envision Plate Reader, PerkinElmer, USA). […]
(Formazan colour is commonly taken as a measure of viable cells.)

Take `C=C1C[C@H]2C=Nc3cc(OCCCOc4cc5c(cc4OC)C(=O)N4CC(=C)C[C@H]4C=N5)c(OC)cc3C(=O)N2C1`: the adverse effects entry in series [1] is “lower-limb edema and fatigue”.

In the case of `COC(=O)c1cc(-c2ccc(NC(=O)c3nc(NC(=O)CCCOc4cc5c(cc4OC)C(=O)N4CCC[C@H]4C=N5)cn3C)cc2)cn1C`, the cytotoxic activity range entry in the series with cancer cell lines is given as “femtomolar range”.

A word on the IC50: it is the concentration that inhibits the measured activity by half. On to `COC(=O)c1cc2cc(NC(=O)c3cc(NC(=O)CO[C@@H]4CCN5C(=O)c6cc(OC)c(OC)cc6N=C[C@@H]5C4)cn3C)ccc2s1` [Compound 23, Methyl 5-(4-(2-(((6aS,8R)-2,3-dimethoxy-12-oxo-6a,7,8,9,10,12-hexahydrobenzo[e]pyrido[1,2-a][1,4]diazepin-8-yl)oxy)acetamido)-1-methyl-1H-pyrrole-2-carboxamido)benzo[b]thiophene-2-carboxylate], for which the IC50 in series [2] turned out to be 221 nM.
